Values of other authors, collected in patent publication US6689384B2, “Stable pergolide mesylate and process for making same” (Teva Pharmaceuticals Industries Ltd., priority 2000, dated 2004).
Counter-ions that a name gives are not always drawn.

What was measured:
[1] = tested on: serum concentrations of growth hormone; conditions: in humans
[2] = oral administration, 14C radio-labeled
[3] = tested on: serum concentrations of luteinizing hormone; conditions: in humans
secretion of prolactin = conditions: in humans

Row | administered radioactivity recovered from expired CO2 [2] [%] | administered radioactivity recovered from the urine [2] | bound to plasma proteins (plasma proteins) | Structure (SMILES) | serum concentrations of growth hormone [1] | serum concentrations of luteinizing hormone [3] | secretion of prolactin (secretion of prolactin)
1 | ~5 | approximately 55% |  | CCCN1CC(CSC)CC2c3cccc4[nH]cc(c34)CC21 (stereo not drawn) [Pergolide mesylate, 8(beta)-[(Methylthio)methyl]-6-propylergoline monomethanesulfonate] | transient rise | decrease | inhibits
2 |  |  | approximately 90% | CCCN1C[C@H](CSC)C[C@@H]2c3cccc4[nH]cc(c34)C[C@H]21 [Pergolide] |  |  | 
